Patent US20220226337A1 (Gilead Sciences, Inc., priority 2018, published 2022)
pEC50: −log10 of the molar value.

Biological target: T1, α4β7 integrin interaction with MadCAM-1 (RPMI8866 cells) (Homo sapiens, UniProt P13612+P26010)
T1 construct: α4β7 integrin expressing cells; endogenous in cells; host or cells: RPMI8866 cells
T1 sequence (P13612 34-1032): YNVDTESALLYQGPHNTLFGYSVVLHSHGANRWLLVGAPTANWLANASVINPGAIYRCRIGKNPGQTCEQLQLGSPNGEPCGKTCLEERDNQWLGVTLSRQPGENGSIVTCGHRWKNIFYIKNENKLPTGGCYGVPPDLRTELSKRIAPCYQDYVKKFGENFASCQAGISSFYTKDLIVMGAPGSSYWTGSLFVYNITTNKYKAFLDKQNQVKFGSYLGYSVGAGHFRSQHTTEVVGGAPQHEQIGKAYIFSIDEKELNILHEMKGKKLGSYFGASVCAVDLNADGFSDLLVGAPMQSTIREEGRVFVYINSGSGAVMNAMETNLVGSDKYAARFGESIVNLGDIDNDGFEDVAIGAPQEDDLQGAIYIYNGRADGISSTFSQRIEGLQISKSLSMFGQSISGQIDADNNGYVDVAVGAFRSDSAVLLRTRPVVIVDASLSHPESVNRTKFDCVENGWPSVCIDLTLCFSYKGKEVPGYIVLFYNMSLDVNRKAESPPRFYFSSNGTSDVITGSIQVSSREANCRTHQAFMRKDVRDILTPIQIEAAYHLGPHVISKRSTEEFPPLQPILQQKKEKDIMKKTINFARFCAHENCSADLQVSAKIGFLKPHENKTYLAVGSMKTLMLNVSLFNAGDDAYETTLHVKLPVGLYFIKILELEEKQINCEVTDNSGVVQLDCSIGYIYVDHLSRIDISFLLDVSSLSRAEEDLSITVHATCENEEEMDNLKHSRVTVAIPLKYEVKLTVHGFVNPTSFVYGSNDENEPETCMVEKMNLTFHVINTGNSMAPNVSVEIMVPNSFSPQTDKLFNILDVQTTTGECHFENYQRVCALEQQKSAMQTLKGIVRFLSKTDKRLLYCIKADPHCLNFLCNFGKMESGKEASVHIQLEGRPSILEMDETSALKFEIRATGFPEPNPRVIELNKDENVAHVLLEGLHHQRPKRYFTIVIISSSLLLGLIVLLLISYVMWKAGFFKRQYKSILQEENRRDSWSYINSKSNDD
T1 sequence (P26010 20-798): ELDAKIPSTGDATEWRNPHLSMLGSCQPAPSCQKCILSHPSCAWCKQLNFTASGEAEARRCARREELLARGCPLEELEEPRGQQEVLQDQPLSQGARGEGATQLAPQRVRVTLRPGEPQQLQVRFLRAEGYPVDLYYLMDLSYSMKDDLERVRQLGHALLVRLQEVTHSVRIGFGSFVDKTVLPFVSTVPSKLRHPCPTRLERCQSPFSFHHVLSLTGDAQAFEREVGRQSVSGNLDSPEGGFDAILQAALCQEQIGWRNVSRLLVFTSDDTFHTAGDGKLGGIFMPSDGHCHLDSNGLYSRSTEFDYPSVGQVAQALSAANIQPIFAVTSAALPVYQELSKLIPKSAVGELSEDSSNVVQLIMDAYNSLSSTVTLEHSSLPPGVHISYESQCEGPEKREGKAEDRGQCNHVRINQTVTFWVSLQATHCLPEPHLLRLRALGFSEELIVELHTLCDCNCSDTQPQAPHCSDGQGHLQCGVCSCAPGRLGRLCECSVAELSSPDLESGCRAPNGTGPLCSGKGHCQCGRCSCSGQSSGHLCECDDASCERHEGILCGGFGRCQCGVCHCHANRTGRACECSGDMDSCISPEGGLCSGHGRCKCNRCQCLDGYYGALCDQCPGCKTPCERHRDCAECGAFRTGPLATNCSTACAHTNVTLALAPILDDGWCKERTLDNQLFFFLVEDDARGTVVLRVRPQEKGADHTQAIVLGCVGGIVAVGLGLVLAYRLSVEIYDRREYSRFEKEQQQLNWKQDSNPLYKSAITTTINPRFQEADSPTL
Assay: α4β7 Integrin Cell Capture Assay
Type: cell-based
Conditions: capture of α4β7 integrin expressing RPMI8866 cells on recombinant MadCAM-1 extracellular domain-coated plate; 0.5 mM MnCl2
Procedure: The potency of inhibitors in preventing α4β7 integrin interaction with MadCAM-1 was measured by monitoring the capture of α4β7 integrin expressing cells on a recombinant MadCAM-1 extracellular domain-coated plate. 384-well plates (Corning 3702) were coated with MadCAM-1 extracellular domain by dispensing 20 μL of MAdCAM-1 at 1.0 μg/mL per well and incubating overnight at 4° C. The plates were then washed with PBS and blocked with 3% BSA for 2 hours before being washed again. RPMI8866 cells were spun down and re-suspended in assay medium (DMEM+0.5% FBS+0.5 mM MnCl2) at a density of 0.5×10^6 cells/mL. The cells were then dispensed (60 μL/well) to a 384-well plate (Greiner 781280) that was previously spotted with 60 nL of test compound per well. The plates were incubated at 37° C. for 1 hour. 50 μL of cells were transferred to the blocked, MadCAM-1-coated plates and incubated for 30 minutes at 37° C. 10 μL of 12% glutaraldehyde containing Hoechst 33342 (0.06 mg/mL) was added to the cells (2% glutaraldehyde and 0.01 mg/mL final concentrations). The plates were incubated for 90 minutes at room temperature. The plates were then washed 3 times with 70 μL of PBS per well and imaged on a Cellomics ArrayScan instrument. The cells that were bound to the plate were counted and plotted against the compound concentration to determine the EC50 of the test compounds.

Row | pEC50 | SMILES
1 | 9.69 | Cc1nc(C)n(C)c(=O)c1-c1ccc(C[C@H](NC(=O)c2c(F)cc(N3CCOC[C@@H]3C(F)(F)F)cc2F)C(=O)O)c2c1OCCC2 (atropisomer, axis not shown) [Example 117]
2 | 9.85 | Cc1nc(C)n(C)c(=O)c1-c1ccc(C[C@H](NC(=O)c2c(F)cc(N3CCOC[C@@H]3C(F)(F)F)cc2F)C(=O)O)c2c1OCCC2 (atropisomer, axis not shown) [Example 118]
3 | 10.05 | Cc1cc(N2CCOC[C@@H]2C(F)(F)F)cc(F)c1C(=O)N[C@@H](Cc1ccc(-c2c(C)nc(C)n(C)c2=O)c2c1CCCO2)C(=O)O (atropisomer, axis not shown) [Example 119]
4 | 10.05 | Cc1cc(N2CCOC[C@@H]2C(F)(F)F)cc(F)c1C(=O)N[C@@H](Cc1ccc(-c2c(C)nc(C)n(C)c2=O)c2c1CCCO2)C(=O)O (atropisomer, axis not shown) [Example 120]
5 | 10.05 | Cc1cc(N2CCOC[C@@H]2C(F)(F)F)cc(F)c1C(=O)N[C@@H](Cc1ccc(-c2c(Cl)cc(C)n(C)c2=O)c2c1CCCO2)C(=O)O (atropisomer, axis not shown) [Example 137]
6 | 9.10 | Cc1cc(N2CCC2)c(-c2ccc(C[C@H](NC(=O)c3c(F)cc(N4CCOC[C@@H]4C(F)(F)F)cc3F)C(=O)O)c3c2OCCC3)c(=O)n1C (atropisomer, axis not shown) [Example 152]
7 | 9.26 | Cc1cc(N2CCC2)c(-c2ccc(C[C@H](NC(=O)c3c(F)cc(N4CCOC[C@@H]4C(F)(F)F)cc3F)C(=O)O)c3c2OCCC3)c(=O)n1C (atropisomer, axis not shown) [Example 153]
8 | 8.82 | Cc1c(-c2ccc(C[C@H](NC(=O)c3c(F)cccc3F)C(=O)O)c3c2OCCC3)c(=O)n(C)c2ccccc12 (single isomer, unassigned) [Example 59]
9 | 8.64 | Cc1c(-c2ccc(C[C@H](NC(=O)c3c(Cl)cccc3Cl)C(=O)O)c3c2OCCC3)c(=O)n(C)c2ccccc12 (single isomer, unassigned) [Example 61]
10 | 8.48 | Cc1c(-c2ccc(C[C@H](NC(=O)c3c(Cl)cccc3Cl)C(=O)O)c3c2OCCC3)c(=O)n(C)c2ccccc12 (single isomer, unassigned) [Example 62]
11 | 6.92 | O=C(N[C@@H](Cc1ccc(-c2c(Cl)cc(F)cc2Cl)c2c1[C@H]1C[C@H]1CO2)C(=O)O)c1c(F)cccc1F (single isomer, unassigned) [Example 78]
12 | 7.48 | O=C(N[C@@H](Cc1ccc(-c2c(Cl)cc(F)cc2Cl)c2c1[C@@H]1C[C@@H]1CO2)C(=O)O)c1c(F)cccc1F (single isomer, unassigned) [Example 79]
13 | 6.96 | O=C(N[C@@H](Cc1ccc(-c2c(Cl)cc(F)cc2Cl)c2c1[C@H]1C[C@H]1CO2)C(=O)O)c1c(Cl)cccc1Cl (single isomer, unassigned) [Example 81]
14 | 7.38 | O=C(N[C@@H](Cc1ccc(-c2c(Cl)cc(F)cc2Cl)c2c1[C@@H]1C[C@@H]1CO2)C(=O)O)c1c(Cl)cccc1Cl (single isomer, unassigned) [Example 82]

The next lines start with the molecule.

Row | SMILES | pEC50
15 | Cc1c(-c2ccc(C[C@H](NC(=O)c3c(F)cc(N4CCOC[C@@H]4C(F)(F)F)cc3F)C(=O)O)c3c2OCCO3)c(=O)n(C)c(=O)n1C (single isomer, unassigned) [Example 8] | 9.52
16 | Cc1c(-c2ccc(C[C@H](NC(=O)c3c(F)cc(N4CCOC[C@@H]4C(F)(F)F)cc3F)C(=O)O)c3c2OCCO3)c(=O)n(C)c(=O)n1C (single isomer, unassigned) [Example 9] | 9.37
17 | Cc1c(-c2ccc(C[C@H](NC(=O)c3c(F)cccc3F)C(=O)O)c3c2CCOC3)c(=O)n(C)c2ccc(F)cc12 (single isomer, unassigned) [Example 36] | 7.61
18 | Cc1c(-c2ccc(C[C@H](NC(=O)c3c(F)cccc3F)C(=O)O)c3c2CCOC3)c(=O)n(C)c2ccc(F)cc12 (single isomer, unassigned) [Example 37] | 8.80
19 | Cc1cc(C(F)(F)F)c(-c2ccc(C[C@H](NC(=O)c3c(F)cc(N4CCOC[C@@H]4C(F)(F)F)cc3F)C(=O)O)c3c2OCCC3)c(=O)n1C (single isomer, unassigned) [Example 39] | 9.90
20 | Cc1cc(C(F)(F)F)c(-c2ccc(C[C@H](NC(=O)c3c(F)cc(N4CCOC[C@@H]4C(F)(F)F)cc3F)C(=O)O)c3c2OCCC3)c(=O)n1C (single isomer, unassigned) [Example 40] | 9.05
21 | Cc1cc(C(F)(F)F)c(-c2ccc(C[C@H](NC(=O)c3c(F)cc(N[C@H](C)C(F)(F)F)cc3F)C(=O)O)c3c2OCCC3)c(=O)n1C (single isomer, unassigned) [Example 41] | 9.23
22 | Cc1cc(C(F)(F)F)c(-c2ccc(C[C@H](NC(=O)c3c(F)cc(N[C@H](C)C(F)(F)F)cc3F)C(=O)O)c3c2OCCC3)c(=O)n1C (single isomer, unassigned) [Example 42] | 8.85
23 | CC[C@@H](Nc1cc(F)c(C(=O)N[C@@H](Cc2ccc(-c3c(C(F)(F)F)cc(C)n(C)c3=O)c3c2CCCO3)C(=O)O)c(F)c1)C(F)(F)F (single isomer, unassigned) [Example 44] | 9.54
24 | CC[C@@H](Nc1cc(F)c(C(=O)N[C@@H](Cc2ccc(-c3c(C(F)(F)F)cc(C)n(C)c3=O)c3c2CCCO3)C(=O)O)c(F)c1)C(F)(F)F (single isomer, unassigned) [Example 45] | 9.02
25 | CC[C@@H](Nc1cc(F)c(C(=O)N[C@@H](Cc2ccc(-c3c(C)n(C)c(=O)n(C)c3=O)c3c2CCCO3)C(=O)O)c(F)c1)C(F)(F)F (single isomer, unassigned) [Example 55] | 9.82
26 | CC[C@@H](Nc1cc(F)c(C(=O)N[C@@H](Cc2ccc(-c3c(C)n(C)c(=O)n(C)c3=O)c3c2CCCO3)C(=O)O)c(F)c1)C(F)(F)F (single isomer, unassigned) [Example 56] | 9.02
27 | Cc1c(-c2ccc(C[C@H](NC(=O)c3c(F)cccc3F)C(=O)O)c3c2OCCC3)c(=O)n(C)c2ccccc12 (single isomer, unassigned) [Example 58] | 8.59
28 | Cn1c(=O)c(-c2ccc(C[C@H](NC(=O)c3c(F)cccc3F)C(=O)O)c3c2OCCO3)cc2ccccc21 [Example 1, (S)-2-(2,6-difluorobenzamido)-3-(8-(1-methyl-2-oxo-1,2-dihydroquinolin-3-yl)-2,3-dihydrobenzo[b][1,4]dioxin-5-yl)propanoic acid] | 7.96
